Measured values: patent US6693166B1, “Cdk5—specific inhibitory peptides” (Hong Kong University of Science and Technology, priority 1999, dated 2004)
Where a SMILES comes first, the peptide text is derived from it. Where no end group is shown, it is not given here.

How the values were obtained:
[1] = target: T1, H6-Cdk5.GST-Nck5a complex (Homo sapiens, UniProt Q00535); experiment: Peptide/Cdk binding assay: GSH-bead co-precipitation and Western blot of Cdk5; conditions: various amounts of peptide (5, 20, 50 μM; 1000-fold excess)
T1 construct: made in house; host or cells: Escherichia coli M15 (H6-Cdk5)
T1 sequence (Q00535 whole entry): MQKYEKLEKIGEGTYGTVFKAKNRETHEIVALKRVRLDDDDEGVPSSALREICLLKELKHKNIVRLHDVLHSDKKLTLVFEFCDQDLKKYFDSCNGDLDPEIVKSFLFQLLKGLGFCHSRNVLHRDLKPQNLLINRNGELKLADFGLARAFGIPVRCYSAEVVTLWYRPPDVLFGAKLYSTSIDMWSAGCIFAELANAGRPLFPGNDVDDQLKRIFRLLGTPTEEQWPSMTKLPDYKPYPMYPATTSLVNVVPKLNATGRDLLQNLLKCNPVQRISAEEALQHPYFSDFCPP
T1 sequence (Q15078 99-307 partner limits assumed): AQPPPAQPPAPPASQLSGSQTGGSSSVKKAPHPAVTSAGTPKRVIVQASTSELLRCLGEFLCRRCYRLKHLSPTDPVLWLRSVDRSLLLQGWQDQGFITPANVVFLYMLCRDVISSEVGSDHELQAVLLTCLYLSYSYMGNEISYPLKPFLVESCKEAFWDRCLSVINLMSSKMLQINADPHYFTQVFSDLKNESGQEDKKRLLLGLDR
Procedure: Peptide/Cdk Binding Assay—H6-Cdk5 (about 3 μg) and 15 μg of GST-p25 were premixed in 300 μl of 1×phosphate-buffered saline with 0.5 mg/ml bovine serum albumin. Some 50-μl quantities of the mixture was taken out to mix with various concentrations of the αN peptide (from serial dilutions made from a 2.0 mM stock solution), and the total volume of the mixture was adjusted to 150 μl using Buffer R (1×phosphate-buffered saline containing 1 mM EDTA, 1 mM dithiothreitol, 0.6 mM phenylmethylsulfonyl fluoride, 1 μg/ml leupeptin, 1 μg/ml leupeptin, 1 μg/ml antipain, 5 mg/ml bovine serum albumin). The reaction mixture was incubated at 4° C for 15 h. GST-Nck5a-H6-Cdk5 complex was then precipitated by the addition of 40 μl of GSH-Sepharose beads pre-equilibrated with 1×phosphate-buffered saline (50%, v/v). The GSH-Sepharose beads were washed three times with 1×phosphate-buffered saline buffer, and subsequently resuspended in 20 μl of water and 20 μl of 2×protein sample treatment buffer. The co-precipitated H6-Cdk5 was detected by SDS-PAGE followed by Western blot using a monoclonal antibody against Cdk5.
To discriminate between these possibilities, we performed direct binding competition experiments. […] The amount of H6-Cdk5 in complex with GST-Nck5a was determined by Western blotting of the enzyme co-precipitated by GSH-agarose beads. […]

[2] = target: T2, GST-Cdk2-cyclin A-H6 complex (Homo sapiens, UniProt P24941); experiment: Peptide/Cdk binding assay: GSH-bead co-precipitation and Western blot of cyclin A; conditions: various amounts of peptide (0.5, 2, 10 μM; 1000-fold excess)
T2 construct: made in house; host or cells: E. coli BL21(DE3) (cyclin A-H6); GST-Cdk2 not described
Procedure: The binding of the αN peptide to the GST-Cdk2-cyclin A-H6 complex was studied in a similar manner to that described above for H6-Cdk5. Briefly, 3 μg of GST-Cdk2 and 10 μg of cyclin A-H6 were reconstituted in Buffer R with various concentrations of the αN peptide at 4° C. for 15 h. GST-Cdk2 was then precipitated by the addition of 20 μl of GSH-Sepharose beads. After washing, the co-precipitated cyclin A-H6 was detected by SDS-PAGE followed by Western blot using a monoclonal antibody against cyclin A (Santa Cruz).
To discriminate between these possibilities, we performed direct binding competition experiments. Various concentrations of the peptides were added to a H6-Cdk5.GST-Nck5a mixture, and GST-Nck5a was then precipitated using GSH-agarose beads. The amount of H6-Cdk5 in complex with GST-Nck5a was determined by Western blotting of the enzyme co-precipitated by GSH-agarose beads. The amount of H6-Cdk5 and cyclin A-H6 used in the experiment described in FIG. 4, A and B, were chosen to ensure that their respective antibodies would be in excess.

[3] = target: T3, GST-Cdk5.GST-Nck5a complex (Homo sapiens, UniProt Q00535); experiment: Steady state kinetic analysis of Cdk5 inhibition (double reciprocal and Dixon plots); format: biochemical
T3 construct: made in house
T3 sequence (Q00535 whole entry): as the sequence (Q00535 whole entry) above
T3 sequence (Q15078 99-307 partner limits assumed): as the sequence (Q15078 99-307 partner limits assumed) above
Procedure: (§1) Peptide Inhibition of Cdk5 and Cdk2 Kinase Activity—Cdk5 kinase activity was assayed essentially as described previously, except that for each Cdk5 kinase reaction 1 μg of GST-Cdk5 was reconstituted with 2 μg of GST-Nck5a, and 1 μg of GST-Cdk2 was mixed with 3 μg of cyclin A-H6 in Cdk2 assays. The reconstituted complexes were added, in duplicate, to an assay mixture containing 30 mM MOPS, pH 7.4, 10 mM MgCl2, 40 μM of the histone H1 peptide, 50 μM [γ-^32P]ATP, and various concentrations of various peptides at 30° C. for 30 min before measuring the Cdk5 and Cdk2 kinase activities.
Steady State Kinetic Experiments—All assay conditions were the same as in the inhibition assay described above, except that the reaction time was kept at 15 min so that the product formed was less than 5% of the total substrate concentration used. To determine suitable concentrations of the substrate and the inhibitor for the steady state kinetic experiments, the Km value of GST-Cdk5.GST-Nck5a complex and a concentration-dependent inhibition profile of the enzyme by the αN peptide were determined. Four different concentrations of the histone H1 peptide (7.5, 10, 15, and 30 μM) were used in the kinetic analysis of the enzyme inhibition. For each substrate concentration, four concentrations of the αN peptide (0, 10, 20, and 30 μM) were used in the inhibition assay.

[4] = target: T2, GST-Cdk2-cyclin A-H6 complex; experiment: Peptide inhibition of Cdk2 kinase activity (histone H1 peptide, [γ-32P]ATP); format: biochemical; conditions: for inhibition of Cdk2 kinase activity (in words): GST-Cdk2.cyclin A-H6, FIG. 3B
Procedure: The C-terminal histidine-tagged human cyclin A (cyclin A-H6) was expressed and purified in essentially the same manner as described for H6-Cdk5. Briefly, the expression plasmid pET21d containing a cyclin A gene lacking the N-terminal 173 amino acids was transformed into BL21(DE3) E. coli cells. The host cells were cultured in LB medium containing 100 μg/ml ampicillin, and cyclin A expression was induced by adding isopropyl-1-thio-β-D-galactopyranoside to a final concentration of 0.1 mM. The induction of cyclin A expression was for 3 h at 30° C. The pelleted cells were resuspended in 50 mM Tris-HCI, pH 7.5, 300 mM NaCl, and 0.05% Triton X-100, and then lysed in the French press. The subsequent purification of cyclin A using a Ni^2+-NTA column was carried out in a manner identical to that described for the purification of H6-Cdk5. The monomeric, active form of cyclin A-H6 was further purified by passing the cyclin A-H6-containing eluent through a Sephacryl S-200 gel filtration column (Amersham Pharmacia Biotech).
as §1

[5] = target: T3, GST-Cdk5.GST-Nck5a complex; experiment: Peptide inhibition of Cdk5 kinase activity (histone H1 peptide, [γ-32P]ATP); format: biochemical; conditions: for inhibition of Cdk5 kinase activity (in words): GST-Cdk5.GST-Nck5a, FIG. 2 and 3A
Procedure: as §1

[6] = listed as Nck5a-derived peptide

Q: With CC(C)C[C@H](NC(=O)[C@H](CS)NC(=O)[C@H](CCCNC(=N)N)NC(=O)[C@H](CC(C)C)NC(=O)[C@H](CC(C)C)NC(=O)[C@H](CCC(=O)O)NC(=O)[C@H](CO)NC(=O)[C@@H](NC(=O)[C@H](CO)NC(=O)[C@H](C)N)[C@@H](C)O)C(=O)NCC(=O)N[C@@H](CCC(=O)O)C(=O)N[C@@H](Cc1ccccc1)C(=O)N[C@@H](CC(C)C)C(=O)N[C@@H](CS)C(=O)N[C@@H](CCCNC(=N)N)C(=O)N[C@@H](CCCNC(=N)N)C(=O)N[C@@H](CS)C(=O)N[C@@H](Cc1ccc(O)cc1)C(=O)N[C@@H](CCCNC(=N)N)C(=O)N[C@@H](CC(C)C)C(=O)N[C@@H](CCCCN)C(=O)N[C@@H](Cc1c[nH]cn1)C(=O)N[C@@H](CC(C)C)C(=O)N[C@@H](CO)C(=O)N1CCC[C@H]1C(=O)N[C@H](C(=O)N[C@@H](CC(=O)O)C(=O)O)[C@@H](C)O [αN peptide] (H-ASTSELLRCLGEFLCRRCYRLKHLSPTD-OH; N-terminus and C-terminus assumed) as the compound, how does the “dissociation of Nck5a from Cdk5 on addition of peptide” value [1] read?
A: The value was “did not lead to a dissociation of GST-Nck5a from H6-Cdk5”.

Q: What about the “dissociation of Nck5a from Cdk5 on addition of peptide” value [1, 6] of the same compound?
A: Its value is “does not lead to the dissociation of Nck5a from Cdk5”.

Q: What about the “dissociation of cyclin A from Cdk2 on addition of peptide” value [2] of the same compound?
A: Its value is “formation of a ternary complex”.

Q: What about the “dissociation of cyclin A from Cdk2 on addition of peptide” value [2, 6] of the same compound?
A: Its value is “does not lead to the dissociation of Nck5a from Cdk5 or cyclin A from Cdk2”.

Q: And the “inhibition of the kinase by an excess amount of peptide” value ([3]; 400 μM peptide, data not shown)?
A: The value was “near complete inhibition”.

Q: And the “mode of inhibition with respect to the substrate (histone H1 peptide)” value ([3]; double-reciprocal plot)?
A: Its value is “noncompetitive inhibitor”.

Q: And the inhibition at 0.5 µM ([4]; 0.5 μM peptide)?
A: Its inhibition at 0.5 µM is 10%.

Q: What about the inhibition at 2 µM ([4]; 2 μM peptide) of the same compound?
A: Its inhibition at 2 µM is 50%.

Q: And the inhibition at 10 µM ([4]; 10 μM peptide)?
A: Its inhibition at 10 µM is 90%.

Q: What about the “inhibition of Cdk2 kinase activity (in words)” value [4] of the same compound?
A: Its value is “even higher potency than in the case with Cdk5.Nck5a inhibition”.

Q: And the inhibition at 5 µM ([5]; 5 μM peptide, heading: inhibition of Cdk5 activity)?
A: The inhibition at 5 µM was 10%.

Q: And the inhibition at 20 µM ([5]; 20 μM peptide)?
A: Its inhibition at 20 µM is 50%.

Q: And the inhibition at 50 µM ([5]; 50 μM peptide)?
A: Its inhibition at 50 µM is 90%.

Q: And the “inhibition of Cdk5 activity” value ([5]; 50 μM peptide)?
A: Its value is “about 90%”.

Q: What about the “effect of a large excess of GST-Nck5a on Cdk5 inhibition by the peptide” value ([5]; 50 μM peptide, 2, 20, 40 μg GST-p25 with 1 μg GST-Cdk5) of the same compound?
A: Its value is “no significant effect”.

Q: With “DYHDIHTYLREMEVKPKPKVGYMKKQPDIT (DYHEDIHTYLREMEVKCKPKVGYMKKQPDIT; listed as Homo sapiens) [cyclin A peptide, 31-residue peptide corresponding to Asp177 to Thr207 of human cyclin A, the N-terminal alpha-helix, reference compound]” as the compound, how does the “inhibition of Cdk2 kinase activity (in words)” value [4] read?
A: Its value is “inhibited neither GST-Cdk5.GST-Nck5a nor GST-Cdk2.cyclin A-H6”.

Q: And the “inhibition of Cdk5 kinase activity (in words)” value [5]?
A: Its value is “inhibited neither GST-Cdk5.GST-Nck5a nor GST-Cdk2.cyclin A-H6”.

Q: What does the source list for “GST-αN: GST fusion mutant containing a 29-residue peptide fragment corresponding to residues Gln145 to Asp173 of Nck5a (QASTSELLRCLGEFLCRRCYRLKHLSPTD; cysteine pairing not given here; also: fused to GST)”?
A: inhibition of Cdk2 kinase activity (in words) [4]: also inhibited the kinase activity of Cdk2; inhibition of Cdk5 kinase activity (in words) [5]: inhibit Cdk5 kinase activity in a dose-dependent manner; Cdk5 kinase activity inhibited ([5]; GST-αN concentration of 5 μM): About 50%
